Experimental data from PubChem BioAssay AID2060909 (Molecular Pharmacology Branch, DTP, NCI, 2025).

Tested on: 362531-283-R-J2-PDC complex spheroid viability
Assay: Anticancer human tumor 362531-283-R-J2-PDC patient-derived colon adenocarcinoma cell line growth inhibition [RAS]
Settings: for IC50: curve of first compound; for viability, T/C: stronger effect = lower value
How it was run: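 Tumour cells grown as complex spheroids with HUVEC endothelial cells and mesenchymal stem cells, treated with RAS pathway inhibitor combinations. Each agent spans half-log steps from near clinical Cmax, or 10 microM where Cmax is unknown.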

[1] = second compound 0.0316 µM, first compound 0.00316 µM
[2] = second compound 0.0316 µM, first compound 0.01 µM
[3] = second compound 0.0316 µM, first compound 0.0316 µM
[4] = second compound 0.0316 µM, first compound 0.1 µM
[5] = second compound 0.1 µM, first compound 0.00316 µM
[6] = second compound 0.1 µM, first compound 0.01 µM
[7] = second compound 0.1 µM, first compound 0.0316 µM
[8] = second compound 0.1 µM, first compound 0.1 µM
[9] = second compound 0.316 µM, first compound 0.00316 µM
[10] = second compound 0.316 µM, first compound 0.01 µM
[11] = second compound 0.316 µM, first compound 0.0316 µM
[12] = second compound 0.316 µM, first compound 0.1 µM
[13] = second compound 1 µM, first compound 0.00316 µM
[14] = second compound 1 µM, first compound 0.01 µM
[15] = second compound 1 µM, first compound 0.0316 µM
[16] = second compound 1 µM, first compound 0.1 µM
[17] = second compound 3.16 µM, first compound 0.00316 µM
[18] = second compound 3.16 µM, first compound 0.01 µM
[19] = second compound 3.16 µM, first compound 0.0316 µM
[20] = second compound 3.16 µM, first compound 0.1 µM
[21] = second compound 10 µM, first compound 0.00316 µM
[22] = second compound 10 µM, first compound 0.01 µM
[23] = second compound 10 µM, first compound 0.0316 µM
[24] = second compound 10 µM, first compound 0.1 µM
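Also: spheroids exposed to the agents for 7 days before readout.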
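For viability, T/C in this document: luminescence viability as percent of DMSO vehicle control wells.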

In the case of `O=C(c1ccc(F)c(F)c1Nc1ccc(I)cc1F)N1CC(O)([C@@H]2CCCCN2)C1` + CCn1c(-c2cccnc2C(C)OC)c2c3cc(ccc31)N1CCOC(CC(NC(=O)C(C(C)C)N(C)C(=O)C3(F)CCN(C(=O)C#CC(C)(C)N(C)C)CC3)C(=O)N3CCCC(N3)C(=O)OCC(C)(C)C2)C1, the IC50 (second compound 0.000949 µM) is reported as 628 nM, the IC50 (second compound 0.003 µM) is reported as 537 nM and the IC50 (second compound 0.00949 µM) is reported as 573 nM. It also gave an IC50 (second compound 0.03 µM) of 684 nM, an IC50 (second compound 0.0949 µM) of 580 nM and an IC50 (second compound 0.3 µM) of 604 nM. The viability, T/C (second compound 0.000949 µM, first compound 0.00316 µM) was 94%, the viability, T/C (second compound 0.000949 µM, first compound 0.01 µM) was 94.9% and the viability, T/C (second compound 0.000949 µM, first compound 0.0316 µM) was 101%. The viability, T/C (second compound 0.000949 µM, first compound 0.1 µM) was 91.3%, the viability, T/C (second compound 0.000949 µM, first compound 0.316 µM) was 88% and the viability, T/C (second compound 0.000949 µM, first compound 1 µM) was 24.4%. The viability, T/C (second compound 0.003 µM, first compound 0.00316 µM) was 102%, the viability, T/C (second compound 0.003 µM, first compound 0.01 µM) was 108% and the viability, T/C (second compound 0.003 µM, first compound 0.0316 µM) was 107%. For the same compound, the viability, T/C (second compound 0.003 µM, first compound 0.1 µM) was 83.2%, the viability, T/C (second compound 0.003 µM, first compound 0.316 µM) was 81.8% and the viability, T/C (second compound 0.003 µM, first compound 1 µM) was 18.4%. For the same compound, the viability, T/C (second compound 0.00949 µM, first compound 0.00316 µM) was 86%, the viability, T/C (second compound 0.00949 µM, first compound 0.01 µM) was 108% and the viability, T/C (second compound 0.00949 µM, first compound 0.0316 µM) was 102%. It also gave a viability, T/C (second compound 0.00949 µM, first compound 0.1 µM) of 88.8%, a viability, T/C (second compound 0.00949 µM, first compound 0.316 µM) of 82.1% and a viability, T/C (second compound 0.00949 µM, first compound 1 µM) of 20.9%. For the same compound, the viability, T/C (second compound 0.03 µM, first compound 0.00316 µM) was 97.7%, the viability, T/C (second compound 0.03 µM, first compound 0.01 µM) was 98.6% and the viability, T/C (second compound 0.03 µM, first compound 0.0316 µM) was 104%. For the same compound, the viability, T/C (second compound 0.03 µM, first compound 0.1 µM) was 91.2%, the viability, T/C (second compound 0.03 µM, first compound 0.316 µM) was 99% and the viability, T/C (second compound 0.03 µM, first compound 1 µM) was 26.4%. The viability, T/C (second compound 0.0949 µM, first compound 0.00316 µM) was 105%, the viability, T/C (second compound 0.0949 µM, first compound 0.01 µM) was 103% and the viability, T/C (second compound 0.0949 µM, first compound 0.0316 µM) was 103%. It also gave a viability, T/C (second compound 0.0949 µM, first compound 0.1 µM) of 81.8%, a viability, T/C (second compound 0.0949 µM, first compound 0.316 µM) of 86.8% and a viability, T/C (second compound 0.0949 µM, first compound 1 µM) of 22.3%. The viability, T/C (second compound 0.3 µM, first compound 0.00316 µM) was 89%, the viability, T/C (second compound 0.3 µM, first compound 0.01 µM) was 90.8% and the viability, T/C (second compound 0.3 µM, first compound 0.0316 µM) was 99%. The viability, T/C (second compound 0.3 µM, first compound 0.1 µM) was 82%, the viability, T/C (second compound 0.3 µM, first compound 0.316 µM) was 88.2% and the viability, T/C (second compound 0.3 µM, first compound 1 µM) was 20.3%.

In the case of `CC(C)n1nc(-c2ccc3oc(N)nc3c2)c2c(N)ncnc21` + C#Cc1c(F)ccc2cc(O)cc(-c3ncc4c(N5CC6CCC(C5)N6)nc(OCC56CCCN5CC(F)C6)nc4c3F)c12, the IC50 (second compound 0.0316 µM) is reported as greater than 100 nM, the IC50 (second compound 0.1 µM) is reported as greater than 100 nM and the IC50 (second compound 0.316 µM) is reported as 20.5 nM. The IC50 (second compound 1 µM) was 13.1 nM, the IC50 (second compound 3.16 µM) was 3.09 nM and the IC50 (second compound 10 µM) was less than 0.316 nM. It also gave a viability, T/C (second compound 0.0316 µM, first compound 0.000316 µM) of 96%, a viability, T/C (second compound 0.0316 µM, first compound 0.001 µM) of 87.6% and a viability, T/C [1] of 91.9%. The viability, T/C [2] was 78.7%, the viability, T/C [3] was 50.2% and the viability, T/C [4] was 53.2%. The viability, T/C (second compound 0.1 µM, first compound 0.000316 µM) was 104%, the viability, T/C (second compound 0.1 µM, first compound 0.001 µM) was 98% and the viability, T/C [5] was 86.3%. It also gave a viability, T/C [6] of 68%, a viability, T/C [7] of 66.6% and a viability, T/C [8] of 48.7%. It also gave a viability, T/C (second compound 0.316 µM, first compound 0.000316 µM) of 91.9%, a viability, T/C (second compound 0.316 µM, first compound 0.001 µM) of 94.5% and a viability, T/C [9] of 85.6%. For the same compound, the viability, T/C [10] was 62.5%, the viability, T/C [11] was 41.1% and the viability, T/C [12] was 41.5%. It also gave a viability, T/C (second compound 1 µM, first compound 0.000316 µM) of 80.4%, a viability, T/C (second compound 1 µM, first compound 0.001 µM) of 86.2% and a viability, T/C [13] of 78.2%. It also gave a viability, T/C [14] of 51.9%, a viability, T/C [15] of 45.9% and a viability, T/C [16] of 38.4%. It also gave a viability, T/C (second compound 3.16 µM, first compound 0.000316 µM) of 74.2%, a viability, T/C (second compound 3.16 µM, first compound 0.001 µM) of 55.2% and a viability, T/C [17] of 57.4%. The viability, T/C [18] was 35.3%, the viability, T/C [19] was 33.6% and the viability, T/C [20] was 26.1%. The viability, T/C (second compound 10 µM, first compound 0.000316 µM) was 42.9%, the viability, T/C (second compound 10 µM, first compound 0.001 µM) was 42.5% and the viability, T/C [21] was 34%. It also gave a viability, T/C [22] of 25.5%, a viability, T/C [23] of 20.1% and a viability, T/C [24] of 18.3%.

For `CCN1CCN(Cc2ccc(Nc3ncc(F)c(-c4cc(F)c5nc(C)n(C(C)C)c5c4)n3)nc2)CC1` + C#Cc1c(F)ccc2cc(O)cc(-c3ncc4c(N5CC6CCC(C5)N6)nc(OCC56CCCN5CC(F)C6)nc4c3F)c12, the IC50 (second compound 0.0316 µM) was 504 nM, the IC50 (second compound 0.1 µM) was 356 nM and the IC50 (second compound 0.316 µM) was 187 nM. For the same compound, the IC50 (second compound 1 µM) was 104 nM, the IC50 (second compound 3.16 µM) was 24.1 nM and the IC50 (second compound 10 µM) was less than 3.16 nM. For the same compound, the viability, T/C [1] was 89.4%, the viability, T/C [2] was 98.7% and the viability, T/C [3] was 98.8%. It also gave a viability, T/C [4] of 70.3%, a viability, T/C (second compound 0.0316 µM, first compound 0.316 µM) of 62.4% and a viability, T/C (second compound 0.0316 µM, first compound 1 µM) of 36.9%. For the same compound, the viability, T/C [5] was 93.7%, the viability, T/C [6] was 93.6% and the viability, T/C [7] was 81.4%. For the same compound, the viability, T/C [8] was 63%, the viability, T/C (second compound 0.1 µM, first compound 0.316 µM) was 57.4% and the viability, T/C (second compound 0.1 µM, first compound 1 µM) was 28.8%. It also gave a viability, T/C [9] of 93.8%, a viability, T/C [10] of 89.2% and a viability, T/C [11] of 85.4%. The viability, T/C [12] was 58.7%, the viability, T/C (second compound 0.316 µM, first compound 0.316 µM) was 42% and the viability, T/C (second compound 0.316 µM, first compound 1 µM) was 21.9%. For the same compound, the viability, T/C [13] was 86.2%, the viability, T/C [14] was 88% and the viability, T/C [15] was 74.1%. It also gave a viability, T/C [16] of 50.5%, a viability, T/C (second compound 1 µM, first compound 0.316 µM) of 29.8% and a viability, T/C (second compound 1 µM, first compound 1 µM) of 20%. The viability, T/C [17] was 77.6%, the viability, T/C [18] was 60.2% and the viability, T/C [19] was 48.5%. The viability, T/C [20] was 32.1%, the viability, T/C (second compound 3.16 µM, first compound 0.316 µM) was 22.4% and the viability, T/C (second compound 3.16 µM, first compound 1 µM) was 17%. It also gave a viability, T/C [21] of 45.2%, a viability, T/C [22] of 42.5% and a viability, T/C [23] of 30.9%. It also gave a viability, T/C [24] of 23.6%, a viability, T/C (second compound 10 µM, first compound 0.316 µM) of 16.7% and a viability, T/C (second compound 10 µM, first compound 1 µM) of 12.2%.
